From patent publication US20050069544A1, “Pharmaceutical composition and a method of treatment” (priority 1998, published 2005)

How the values were obtained:
PBMC from AIHA patients = assay: celELISA of cytokine production by PBMC from AIHA patients; type: cell-based, human; settings: AIHA patient (AIHA26); FIG. 24A
Protocol: Cultured T-cells are stimulated with each of the epitopes given in Table 1 and after 5 days the responding cells were transferred to flat-bottomed microtitre plates (96-well Nunc-Immuno Maxisorp) coated with […] per well of monoclonal anti-cytokine capture antibody diluted in 0.05M alkaline carbonate coating buffer pH 9.6. Unbound capture antibody was removed by two washes with HBSS and non-specific binding potential blocked by incubation with 200 μl per well of phosphate buffered saline, pH 7.4 (PBS containing 3% BSA). […]
After six washes with 0.5% Tween/PBS, 100 μl of 1:100,000 ExtrAvidin-alkaline phosphatase conjugate (Sigma) was then added to each of the wells and incubated at room temperature for 30 minutes. […] The absorbance at 405 nm was then measured using a Multiscan plate reader (Labsystems Basingstoke UK).
Cytokine secretion was measured by interpolation from a standard curve generated by incubating duplicate wells with doubling dilutions of recombinant human IFN-γ or IL-10 or TGF-β (Pharmingen). The standard curves were modelled by a smoothed cubic spline function applied to the absorbance reading and the cytokine concentrations after a quasilogarithmic transformation, where: quasiloge(z)=loge[z+{square root}[z^2+1]). […]

[1] = test system: CD3+ CD4+ T-helper cells of AIHA patients; assay: Flow cytometry of CD3, CD4 and intracellular cytokines in PBMC from AIHA patients; type: cell-based, human; settings: AIHA patient; FIGS. 24B to 24E
Protocol: The secretion of cytokines identified in Example 1.3 by T-helper cells is confirmed by flow cytometery analysis. Simultaneous measurement of surface molecules CD3 and CD4 and intracellular cytokines IFN-γ or IL-10 was carried out using three colour flow cytometry analysis in PBMC, isolated from RhD-alloimmunised donors, cultured with either no antigen or RhD peptide for five days after stimulation. All analysis was carried out using Expo v2 analysis software (applied Cytometry Systems). The CD3+ T-cells were gated open and the numbers of IFN-γ+ and CD4+ cells were assessed. In all donors tested there was a significant increase in the proportion of CD4+ IFN-γ+CD3+ T-cells to at least one of the RhD peptides tested. In the representative example shown in FIGS. 12A to 12L it can be seen that the proportion of CD4+ IFN-γ+cells was 4.2% in unstimulated cultures (FIG. 12E). […] The IL-10 and CD4+ expression was also assessed on CD3+ gated population of T-cells. In PBMC cultures isolated from the alloimmune donor shown, there was an increase in the proportion of CD4+ IL-10+T-cells from 2.4% in unstimulated PBMC cultures (FIG. 12I) to 6.5% in culture stimulated with RhD peptide 13 (FIG. 12J) to 6.2% in cultures stimulated with RhD peptide 17 (FIG. 12K) and 5.9% with RhD peptide 28 (FIG. 12L).
The secretion of cytokines identified in Example 2.3 by T-cells is confirmed utilising the experiments mentioned in Example 1.4, which were repeated using PBMC isolated from patients with AIHA.

WMFWPSFNSALLRSP (Residue 217-231 RhD; listed as Homo sapiens) [compound 36]
IL-10 production by PBMC (PBMC from AIHA patients): induces the production of IL-10 | CD3+ CD4+ T helper cells expressing intracellular IL-10 [1]: expansion of a CD3+ CD4+population of T helper cells
